Columns and labels:
human orexin-1 receptor = human orexin-1 receptor (Homo sapiens (Human), UniProt O43613); test: In vitro assay: intracellular calcium measurements (FLIPR), antagonistic activity; type: cell-based; conditions: CHO cells expressing human orexin-1 receptor, orexin-A agonist, geometric mean, read-out: IC50 Ox1
Procedure: (§1) In Vitro Assay: Intracellular Calcium Measurements:
(§2) Chinese hamster ovary (CHO) cells expressing the human orexin-1 receptor and the human orexin-2 receptor, respectively, are grown in culture medium (Ham F-12 with L-Glutamine) containing 300 μg/ml G418, 100 U/ml penicillin, 100 μg/ml streptomycin and 10% heat inactivated fetal calf serum (FCS). The cells are seeded at 20,000 cells/well into 384-well black clear bottom sterile plates (Greiner). The seeded plates are incubated overnight at 37° C. in 5% CO2.
(§3) Human orexin-A as an agonist is prepared as 1 mM stock solution in MeOH: water (1:1), diluted in HBSS containing 0.1% bovine serum albumin (BSA), NaHCO3: 0.375 g/l and 20 mM HEPES for use in the assay at a final concentration of 3 nM.
(§4) Antagonists are prepared as 10 mM stock solution in DMSO, then diluted in 384-well plates using DMSO followed by a transfer of the dilutions into in HBSS containing 0.1% bovine serum albumin (BSA), NaHCO3: 0.375 g/l and 20 mM HEPES. On the day of the assay, 50 μl of staining buffer (HBSS containing 1% FCS, 20 mM HEPES, NaHCO3: 0.375 g/l, 5 mM probenecid (Sigma) and […] of the fluorescent calcium indicator fluo-4 AM (1 mM stock solution in DMSO, containing 10% pluronic) is added to each well. The 384-well cell-plates are incubated for 50 min at 37° C. in 5% CO2 followed by equilibration at RT for 30 min before measurement.
(§5) Within the Fluorescent Imaging Plate Reader (FLIPR Tetra, Molecular Devices), antagonists are added to the plate in a volume of 10 μl/well, incubated for 120 min and finally 10 μl/well of agonist is added. Fluorescence is measured for each well at 1 second intervals, and the height of each fluorescence peak is compared to the height of the fluorescence peak induced by an approximate EC70 (for example 5 nM) of orexin-A with vehicle in place of antagonist. The IC50 value (the concentration of compound needed to inhibit 50% of the agonistic response) is determined and may be normalized using the obtained IC50 value of a on-plate reference compound. Optimized conditions are achieved by adjustment of pipetting speed and cell splitting regime. The calculated IC50 values may fluctuate depending on the daily cellular assay performance. Fluctuations of this kind are known to those skilled in the art. Average IC50 values from several measurements are given as geometric mean values.

human orexin-2 receptor = human orexin-2 receptor (Homo sapiens (Human), UniProt O43614); test: as above; type: cell-based; conditions: CHO cells expressing human orexin-2 receptor, orexin-A agonist, geometric mean, read-out: IC50 Ox2
Procedure: as §1, §2, §3, §4, §5

Chain of human orexin-1 receptor (O43613 whole entry): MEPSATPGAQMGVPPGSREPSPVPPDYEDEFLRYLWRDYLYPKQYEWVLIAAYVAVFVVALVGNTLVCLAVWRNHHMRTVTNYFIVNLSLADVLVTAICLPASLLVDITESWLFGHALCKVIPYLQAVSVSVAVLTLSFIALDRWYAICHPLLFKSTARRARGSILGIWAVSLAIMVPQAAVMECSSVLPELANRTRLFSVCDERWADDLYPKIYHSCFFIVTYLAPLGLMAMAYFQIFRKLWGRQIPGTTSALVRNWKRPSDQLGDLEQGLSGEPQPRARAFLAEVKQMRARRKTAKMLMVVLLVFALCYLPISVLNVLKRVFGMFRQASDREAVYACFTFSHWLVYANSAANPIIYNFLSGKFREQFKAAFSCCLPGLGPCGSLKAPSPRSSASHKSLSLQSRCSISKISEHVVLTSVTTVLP
Chain of human orexin-2 receptor (O43614 whole entry): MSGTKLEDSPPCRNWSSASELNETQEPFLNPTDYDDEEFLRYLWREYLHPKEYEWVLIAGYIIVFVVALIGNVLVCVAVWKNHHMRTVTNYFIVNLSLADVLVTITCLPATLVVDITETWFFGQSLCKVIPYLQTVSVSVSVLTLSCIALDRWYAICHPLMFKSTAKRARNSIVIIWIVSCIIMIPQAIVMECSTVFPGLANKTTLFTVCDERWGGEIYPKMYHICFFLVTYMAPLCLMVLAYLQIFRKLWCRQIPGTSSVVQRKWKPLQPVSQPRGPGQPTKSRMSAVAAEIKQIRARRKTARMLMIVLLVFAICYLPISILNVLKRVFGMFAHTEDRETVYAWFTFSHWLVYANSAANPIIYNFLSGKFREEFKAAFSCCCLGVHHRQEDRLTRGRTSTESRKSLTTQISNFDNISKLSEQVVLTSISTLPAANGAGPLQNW

Row | Compound | IC50 (human orexin-1 receptor) [nM] | IC50 (human orexin-2 receptor) [nM]
1 | Cc1nc(C(=O)N2CCCC2c2nc3cc(Cl)ccc3[nH]2)c(-c2cccc(Cl)c2)s1 (stereo not drawn) [Ex. 1.97] | 95 | 314
2 | Cc1nc(C(=O)N2CCCC2c2nc3cc(C(C)(C)C)ccc3[nH]2)c(-c2cccc(Cl)c2)s1 (stereo not drawn) [Ex. 1.99] | 58 | 50
3 | Cc1nc(C(=O)N2CCCC2c2nc3c(Cl)cc(C(F)(F)F)cc3[nH]2)c(-c2cccc(Cl)c2)s1 (stereo not drawn) [Ex. 1.100] | 27 | 104
4 | Cc1nc(C(=O)N2CCCC2c2nc3cc(Cl)c(C)cc3[nH]2)c(-c2cccc(Cl)c2)s1 (stereo not drawn) [Ex. 1.101] | 21 | 50
5 | Cc1nc(C(=O)N2CCCC2c2nc3c(CO)cccc3[nH]2)c(-c2cccc(Cl)c2)s1 (stereo not drawn) [Ex. 1.103] | 364 | 112
6 | Cc1nc(C(=O)N2CCCC2c2nc3c(F)cccc3[nH]2)c(-c2cccc(Cl)c2)s1 (stereo not drawn) [Ex. 1.104] | 657 | 769
7 | Cc1nc(C(=O)N2CCCC2c2nc3c(C(F)(F)F)cccc3[nH]2)c(-c2cccc(Cl)c2)s1 (stereo not drawn) [Ex. 1.105] | 45 | 89
8 | Cc1nc(C(=O)N2CCCC2c2nc3c(Br)cccc3[nH]2)c(-c2cccc(Cl)c2)s1 (stereo not drawn) [Ex. 1.106] | 17 | 31
9 | Cc1nc(C(=O)N2CCCC2c2nc3cc(Br)cc(C)c3[nH]2)c(-c2cccc(Cl)c2)s1 (stereo not drawn) [Ex. 1.107] | 28 | 58
10 | Cc1nc(C(=O)N2CCCC2c2nc3cc(OC(F)(F)F)ccc3[nH]2)c(-c2cccc(Cl)c2)s1 (stereo not drawn) [Ex. 1.108] | 171 | 835
11 | Cc1nc(C(=O)N2CCCC2c2nc3c(C)c(Cl)ccc3[nH]2)c(-c2cccc(Cl)c2)s1 (stereo not drawn) [Ex. 1.109] | 5 | 10
12 | COc1cc2nc(C3CCCN3C(=O)c3nc(C)sc3-c3cccc(Cl)c3)[nH]c2cc1OC (stereo not drawn) [Ex. 1.110] | 164 | 46
13 | Cc1nc(C(=O)N2CCCC2c2nc3cc(C(F)(F)F)c(F)cc3[nH]2)c(-c2cccc(Cl)c2)s1 (stereo not drawn) [Ex. 1.111] | 32 | 243
14 | Cc1nc(C(=O)N2CCCC2c2nc3cc(F)c(Br)cc3[nH]2)c(-c2cccc(Cl)c2)s1 (stereo not drawn) [Ex. 1.112] | 69 | 289
15 | Cc1nc(C(=O)N2CCCC2c2nc3cc(C(F)(F)F)c(Cl)cc3[nH]2)c(-c2cccc(Cl)c2)s1 (stereo not drawn) [Ex. 1.113] | 5 | 58
16 | Cc1nc(C(=O)N2CCCC2c2nc3c(Br)cc(F)cc3[nH]2)c(-c2cccc(Cl)c2)s1 (stereo not drawn) [Ex. 1.114] | 30 | 74
17 | Cc1nc(C(=O)N2CCCC2c2nc3c(C)c(C)ccc3[nH]2)c(-c2cccc(Cl)c2)s1 (stereo not drawn) [Ex. 1.115] | 37 | 19
18 | Cc1nc(C(=O)N2CCCC2c2nc3c(C(C)C)cccc3[nH]2)c(-c2cccc(Cl)c2)s1 (stereo not drawn) [Ex. 1.116] | 86 | 248
19 | Cc1nc(C(=O)N2CCCC2c2nc3c(C(F)(F)F)cc(C(F)(F)F)cc3[nH]2)c(-c2ccccc2)s1 (stereo not drawn) [Ex. 1.118] | 191 | 364
20 | Cc1nc(C(=O)N2CCCC2c2nc3cc(Cl)c(Cl)cc3[nH]2)c(-c2ccccc2)s1 (stereo not drawn) [Ex. 1.119] | 27 | 77
21 | Cc1nc(C(=O)N2CCCC2c2nc3cc(Br)ccc3[nH]2)c(-c2ccccc2)s1 (stereo not drawn) [Ex. 1.120] | 147 | 557
22 | Cc1nc(C(=O)N2CCCC2c2nc3cc(C(F)(F)F)ccc3[nH]2)c(-c2ccccc2)s1 (stereo not drawn) [Ex. 1.121] | 76 | 287
23 | Cc1nc(C(=O)N2CCCC2c2nc3cc(C)c(C)cc3[nH]2)c(-c2ccccc2)s1 (stereo not drawn) [Ex. 1.122] | 55 | 45
24 | Cc1nc(C(=O)N2CCCC2c2nc3c(C)cccc3[nH]2)c(-c2ccccc2)s1 (stereo not drawn) [Ex. 1.123] | 147 | 70
25 | Cc1nc(C(=O)N2CCCC2c2nc3cc(C(C)(C)C)ccc3[nH]2)c(-c2ccccc2)s1 (stereo not drawn) [Ex. 1.124] | 119 | 42
26 | Cc1nc(C(=O)N2CCCC2c2nc3c(Cl)cc(C(F)(F)F)cc3[nH]2)c(-c2ccccc2)s1 (stereo not drawn) [Ex. 1.125] | 39 | 73
27 | Cc1nc(C(=O)N2CCCC2c2nc3cc(Cl)c(C)cc3[nH]2)c(-c2ccccc2)s1 (stereo not drawn) [Ex. 1.126] | 18 | 24

Row | Compound | IC50 (human orexin-1 receptor) [nM] | IC50 (human orexin-2 receptor) [nM]
28 | Cc1cc(C)c2nc(C3CCCN3C(=O)c3nc(C)sc3-c3ccccc3)[nH]c2c1 (stereo not drawn) [Ex. 1.127] | 33 | 22
29 | Cc1nc(C(=O)N2CCCC2c2nc3c(CO)cccc3[nH]2)c(-c2ccccc2)s1 (stereo not drawn) [Ex. 1.128] | 1480 | 331
30 | Cc1nc(C(=O)N2CCCC2c2nc3c(C(F)(F)F)cccc3[nH]2)c(-c2ccccc2)s1 (stereo not drawn) [Ex. 1.129] | 93 | 124
31 | Cc1nc(C(=O)N2CCCC2c2nc3c(Br)cccc3[nH]2)c(-c2ccccc2)s1 (stereo not drawn) [Ex. 1.130] | 113 | 75
32 | Cc1nc(C(=O)N2CCCC2c2nc3cc(Br)cc(C)c3[nH]2)c(-c2ccccc2)s1 (stereo not drawn) [Ex. 1.131] | 37 | 48
33 | Cc1nc(C(=O)N2CCCC2c2nc3cc(OC(F)(F)F)ccc3[nH]2)c(-c2ccccc2)s1 (stereo not drawn) [Ex. 1.132] | 90 | 614
34 | Cc1nc(C(=O)N2CCCC2c2nc3c(C)c(Cl)ccc3[nH]2)c(-c2ccccc2)s1 (stereo not drawn) [Ex. 1.133] | 4 | 11
35 | COc1cc2nc(C3CCCN3C(=O)c3nc(C)sc3-c3ccccc3)[nH]c2cc1OC (stereo not drawn) [Ex. 1.134] | 116 | 26
36 | Cc1nc(C(=O)N2CCCC2c2nc3cc(C(F)(F)F)c(F)cc3[nH]2)c(-c2ccccc2)s1 (stereo not drawn) [Ex. 1.135] | 32 | 194
37 | Cc1nc(C(=O)N2CCCC2c2nc3cc(F)c(Br)cc3[nH]2)c(-c2ccccc2)s1 (stereo not drawn) [Ex. 1.136] | 81 | 278
38 | Cc1nc(C(=O)N2CCCC2c2nc3cc(C(F)(F)F)c(Cl)cc3[nH]2)c(-c2ccccc2)s1 (stereo not drawn) [Ex. 1.137] | 4 | 33
39 | Cc1nc(C(=O)N2CCCC2c2nc3c(Br)cc(F)cc3[nH]2)c(-c2ccccc2)s1 (stereo not drawn) [Ex. 1.138] | 35 | 109
40 | Cc1nc(C(=O)N2CCCC2c2nc3c(C)c(C)ccc3[nH]2)c(-c2ccccc2)s1 (stereo not drawn) [Ex. 1.139] | 103 | 26
41 | Cc1nc(C(=O)N2CCCC2c2nc3c4c(ccc3[nH]2)OCCO4)c(-c2ccccc2)s1 (stereo not drawn) [Ex. 1.140] | 192 | 46
42 | COc1ccc2[nH]c(C3CCCN3C(=O)c3cc(C)ccc3-n3nccn3)nc2c1 (stereo not drawn) [Ex. 1.141] | 507 | 13
43 | Cc1cc(C)c2nc([C@@H]3CCCN3C(=O)c3nc(C)sc3-c3ccccc3)[nH]c2c1 [Ex. 1.142] | 24 | 13
44 | Cc1nc(C(=O)N2CCC[C@H]2c2nc3cc(Cl)c(C)cc3[nH]2)c(-c2ccccc2)s1 [Ex. 1.143] | 14 | 16
45 | Cc1nc(C(=O)N2CCC[C@H]2c2nc3c(C)cc(Br)cc3[nH]2)c(-c2ccccc2)s1 [Ex. 1.144] | 33 | 27
46 | Cc1nc(C(=O)N2CCC[C@H]2c2nc3c(C)c(Cl)ccc3[nH]2)c(-c2ccccc2)s1 [Ex. 1.145] | 3 | 7
47 | Cc1nc(C(=O)N2CCC[C@H]2c2nc3cc(Cl)c(C(F)(F)F)cc3[nH]2)c(-c2ccccc2)s1 [Ex. 1.146] | 7 | 23
48 | CSc1ccc2nc([C@@H]3CCCN3C(=O)c3cc(F)ccc3-n3nccn3)[nH]c2c1 [Ex. 1.147] | 685 | 24
49 | CSc1ccc2nc([C@@H]3CCCN3C(=O)c3c(F)cccc3-n3nccn3)[nH]c2c1 [Ex. 1.148] | 1170 | 44
50 | CSc1ccc2nc([C@@H]3CCCN3C(=O)c3cc(Cl)ccc3-n3nccn3)[nH]c2c1 [Ex. 1.149] | 143 | 9
51 | COc1ccc(-n2nccn2)c(C(=O)N2CCC[C@H]2c2nc3ccc(SC)cc3[nH]2)c1 [Ex. 1.150] | 301 | 11
52 | CSc1ccc2nc([C@@H]3CCCN3C(=O)c3cc(C(F)(F)F)ccc3-n3nccn3)[nH]c2c1 [Ex. 1.151] | 763 | 110
53 | CSc1ccc2nc([C@@H]3CCCN3C(=O)c3cc(C#N)ccc3-n3nccn3)[nH]c2c1 [Ex. 1.152] | 282 | 23
54 | CSc1ccc2nc([C@@H]3CCCN3C(=O)c3ccc(C)cc3-n3nccn3)[nH]c2c1 [Ex. 1.153] | 40 | 3
